ChEMBL document CHEMBL1201862, “PubChem BioAssay data set” (2004)
The source made the active and inactive calls.

Columns and labels:
[1] = test system: Vero; assay: cells; assay type: functional; conditions: Chlorocebus sabaeus
[2] = biological target: T1, Short transient receptor potential channel 4 (Mus musculus, UniProt Q9QUQ5); assay: mouse TRPC4 channel inhibitors, dose response, cell-based, HEK293 TRPC4/mu-opioid, Fluo-4 calcium (AID 434942); assay type: functional;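 further: potency of inhibitors blocking the TRPC4 calcium response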
T1 sequence (Q9QUQ5 whole entry): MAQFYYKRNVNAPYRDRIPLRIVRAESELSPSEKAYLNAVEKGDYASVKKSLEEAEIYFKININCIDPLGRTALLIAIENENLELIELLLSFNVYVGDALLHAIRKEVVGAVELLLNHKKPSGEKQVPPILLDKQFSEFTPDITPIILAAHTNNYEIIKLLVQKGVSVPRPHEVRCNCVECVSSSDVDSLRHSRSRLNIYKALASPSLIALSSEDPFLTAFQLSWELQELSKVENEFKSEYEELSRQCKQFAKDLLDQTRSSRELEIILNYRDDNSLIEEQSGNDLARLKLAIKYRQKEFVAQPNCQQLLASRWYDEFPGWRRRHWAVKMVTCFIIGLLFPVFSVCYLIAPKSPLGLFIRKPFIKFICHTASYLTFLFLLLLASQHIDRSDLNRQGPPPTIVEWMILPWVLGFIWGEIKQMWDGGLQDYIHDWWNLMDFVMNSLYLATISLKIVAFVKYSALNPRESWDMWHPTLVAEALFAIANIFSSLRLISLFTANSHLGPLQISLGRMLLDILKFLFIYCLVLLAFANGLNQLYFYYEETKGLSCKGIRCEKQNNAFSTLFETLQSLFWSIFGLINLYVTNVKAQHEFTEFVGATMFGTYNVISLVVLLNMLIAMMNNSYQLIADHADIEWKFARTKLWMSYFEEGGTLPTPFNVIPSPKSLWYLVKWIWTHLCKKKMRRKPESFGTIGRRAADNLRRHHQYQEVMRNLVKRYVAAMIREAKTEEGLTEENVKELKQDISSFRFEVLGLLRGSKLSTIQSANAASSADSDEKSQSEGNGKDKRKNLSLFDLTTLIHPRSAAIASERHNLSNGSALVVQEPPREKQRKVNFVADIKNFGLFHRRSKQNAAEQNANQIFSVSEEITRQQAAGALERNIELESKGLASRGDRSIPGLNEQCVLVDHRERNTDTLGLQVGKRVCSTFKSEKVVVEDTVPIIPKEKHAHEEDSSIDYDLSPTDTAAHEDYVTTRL

[3] = biological target: T2, High affinity choline transporter 1 (Homo sapiens, UniProt Q9GZV3); assay: CHT inhibitors, dose response, cell-based, 5-point CRC, membrane potential dye (AID 504840); assay type: functional
T2 sequence (Q9GZV3 whole entry): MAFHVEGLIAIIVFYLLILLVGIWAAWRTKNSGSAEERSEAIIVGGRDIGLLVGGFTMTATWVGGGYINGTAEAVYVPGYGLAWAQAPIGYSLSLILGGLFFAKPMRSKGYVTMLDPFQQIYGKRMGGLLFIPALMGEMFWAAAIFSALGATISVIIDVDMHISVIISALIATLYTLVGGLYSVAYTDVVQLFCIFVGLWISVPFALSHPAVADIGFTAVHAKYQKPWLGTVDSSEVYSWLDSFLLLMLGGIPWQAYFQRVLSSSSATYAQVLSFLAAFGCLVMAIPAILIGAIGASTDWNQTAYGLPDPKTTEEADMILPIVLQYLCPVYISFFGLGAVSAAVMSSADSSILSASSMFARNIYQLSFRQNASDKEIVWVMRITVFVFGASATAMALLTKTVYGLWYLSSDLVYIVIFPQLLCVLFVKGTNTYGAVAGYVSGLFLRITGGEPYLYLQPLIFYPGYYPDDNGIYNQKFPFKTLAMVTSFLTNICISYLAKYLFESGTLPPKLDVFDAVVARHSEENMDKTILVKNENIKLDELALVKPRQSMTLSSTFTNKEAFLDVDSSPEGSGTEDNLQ

[4] = biological target: T3, Endoribonuclease toxin MazF (Escherichia coli K-12, UniProt P0AE70); assay: MazF toxin RNase activators, dose response, biochemical, fluorescence, single-stranded RNA substrate, uHTS hits (AID 588481); assay type: functional
T3 sequence (P0AE70 whole entry): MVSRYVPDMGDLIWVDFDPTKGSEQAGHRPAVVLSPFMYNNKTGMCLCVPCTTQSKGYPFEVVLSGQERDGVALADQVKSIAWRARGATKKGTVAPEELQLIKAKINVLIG

[5] = biological target: T3, Endoribonuclease toxin MazF; assay: fluorescent RNA oligo signal without MazF, dose response, counter-screen for MazEF activator project, biochemical, fluorescence, single-stranded RNase substrate (AID 588502); assay type: functional
[6] = human group III sPLA2 inhibitors, dose response, biochemical, QFRET, IC50 (AID 743457);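 further: green fluorescence rise as the enzyme cleaves BODIPY PC-A2 in liposomes; potency for inhibition of the enzyme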
[7] = biological target: T4, Fatty acid synthase (Homo sapiens, UniProt P49327); assay: FAS thioesterase domain inhibitors, dose response, biochemical, endpoint fluorescence intensity, uHTS hits (AID 624327); assay type: functional;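 further: fluorescence from hydrolysis of an O-methyl fluorescein acyl ester substrate by the enzyme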
[8] = biological target: T4, Fatty acid synthase; assay: FAS thioesterase domain inhibitors, dose response, biochemical, kinetic fluorescence intensity (AID 624326); assay type: functional;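 further: rate of fluorescence rise from hydrolysis of a fluorogenic O-methyl fluorescein ester substrate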
[9] = biological target: Disintegrin and metalloproteinase domain-containing protein 17 (Homo sapiens, UniProt P78536); assay: exosite inhibitors of ADAM17, dose response, biochemical (AID 743260)
[10] = ADAM10 protease inhibitors, dose response, selectivity assay for ADAM17 exosite inhibitor project, biochemical, FRET peptide substrate, recombinant human ADAM10 (AID 743259);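 further: ADAM10 enzyme cleaving a FRET peptide substrate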
[11] = biological target: T5, Carboxy-terminal domain RNA polymerase II polypeptide A small phosphatase 1 (Homo sapiens, UniProt Q9GZU7); assay: inhibitors of CTDSP1, concentration-response testing, biochemical assay, absorbance-based, actives from ultra-high-throughput screening (AID 540297); assay type: functional
T5 sequence (Q9GZU7 whole entry): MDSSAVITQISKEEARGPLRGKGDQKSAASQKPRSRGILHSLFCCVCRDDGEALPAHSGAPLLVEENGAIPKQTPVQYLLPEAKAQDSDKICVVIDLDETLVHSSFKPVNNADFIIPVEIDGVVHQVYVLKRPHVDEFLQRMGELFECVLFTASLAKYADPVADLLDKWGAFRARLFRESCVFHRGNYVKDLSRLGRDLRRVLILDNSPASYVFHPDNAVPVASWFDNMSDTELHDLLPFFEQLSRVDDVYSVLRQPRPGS

[12] = test system: HEK293; assay: NOD1 signaling inhibitors, primary screen, cell-based, luminescence, uHTS (AID 1578); assay type: functional; conditions: Homo sapiens
[13] = test system: BJ; assay: cytotoxicity toward BJ-TERT fibroblasts, dose response, cell-based, RAS-independent, luminescence (AID 1933); assay type: functional; conditions: Homo sapiens
[14] = test system: HEK293; assay: cells; assay type: functional, cell-based; conditions: Homo sapiens
[15] = test system: BJ; assay: cells; assay type: functional, cell-based; conditions: Homo sapiens
[16] = test system: HEK293; assay: cells; assay type: functional, cell-based; conditions: Homo sapiens; remark: listed apart in the source
[17] = biological target: Nucleotide-binding oligomerization domain-containing protein 2 (Homo sapiens, UniProt Q9HC29); assay: NOD2 signaling inhibitors, cell-based, luminescence, uHTS, HEK293 (AID 1566); assay type: functional
[18] = test system: HEK293; assay: NOD2 signaling inhibitors in MDP-stimulated cells, cell-based, uHTS, luminescence (AID 2001); assay type: functional; conditions: Homo sapiens
[19] = test system: HEK293; assay: cells; assay type: functional, cell-based; conditions: Homo sapiens; remark: listed apart in the source
[20] = test system: BJ; assay: cytotoxicity toward BJ-TERT-LT-ST fibroblasts, dose response, cell-based, RAS-independent, luminescence (AID 1935); assay type: functional; conditions: Homo sapiens;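 further: BJ fibroblasts immortalized with TERT plus LT and ST oncogenes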
[21] = cytotoxicity toward DRD oncogenic fibroblasts, dose response, cell-based, non-viral oncogenic, luminescence (AID 1934); assay type: functional; conditions: Homo sapiens

Sequence of Disintegrin and metalloproteinase domain-containing protein 17 (P78536 whole entry, the tested form may be a part): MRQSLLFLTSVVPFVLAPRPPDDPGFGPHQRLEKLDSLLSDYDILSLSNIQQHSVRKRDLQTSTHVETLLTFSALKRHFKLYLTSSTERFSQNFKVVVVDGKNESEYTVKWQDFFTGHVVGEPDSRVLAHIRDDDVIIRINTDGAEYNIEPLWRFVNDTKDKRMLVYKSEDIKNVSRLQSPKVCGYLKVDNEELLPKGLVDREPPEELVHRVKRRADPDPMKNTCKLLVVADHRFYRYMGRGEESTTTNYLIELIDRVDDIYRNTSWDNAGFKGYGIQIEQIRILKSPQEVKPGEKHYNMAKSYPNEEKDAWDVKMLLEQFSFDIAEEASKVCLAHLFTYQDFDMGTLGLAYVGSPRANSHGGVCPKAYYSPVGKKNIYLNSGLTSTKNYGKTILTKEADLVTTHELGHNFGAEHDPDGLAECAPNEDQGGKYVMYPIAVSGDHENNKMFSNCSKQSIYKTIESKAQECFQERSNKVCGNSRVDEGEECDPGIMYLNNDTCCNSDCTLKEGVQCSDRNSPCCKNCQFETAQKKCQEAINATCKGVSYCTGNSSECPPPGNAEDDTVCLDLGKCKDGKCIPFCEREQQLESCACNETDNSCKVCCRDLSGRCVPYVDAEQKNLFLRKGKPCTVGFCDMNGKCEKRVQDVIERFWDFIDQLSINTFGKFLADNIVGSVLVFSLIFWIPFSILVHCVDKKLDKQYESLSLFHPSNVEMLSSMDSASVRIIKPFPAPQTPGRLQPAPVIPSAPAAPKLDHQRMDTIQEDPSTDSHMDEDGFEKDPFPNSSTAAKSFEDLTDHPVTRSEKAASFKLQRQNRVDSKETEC
T4 sequence (P49327 whole entry, the tested form may be a part): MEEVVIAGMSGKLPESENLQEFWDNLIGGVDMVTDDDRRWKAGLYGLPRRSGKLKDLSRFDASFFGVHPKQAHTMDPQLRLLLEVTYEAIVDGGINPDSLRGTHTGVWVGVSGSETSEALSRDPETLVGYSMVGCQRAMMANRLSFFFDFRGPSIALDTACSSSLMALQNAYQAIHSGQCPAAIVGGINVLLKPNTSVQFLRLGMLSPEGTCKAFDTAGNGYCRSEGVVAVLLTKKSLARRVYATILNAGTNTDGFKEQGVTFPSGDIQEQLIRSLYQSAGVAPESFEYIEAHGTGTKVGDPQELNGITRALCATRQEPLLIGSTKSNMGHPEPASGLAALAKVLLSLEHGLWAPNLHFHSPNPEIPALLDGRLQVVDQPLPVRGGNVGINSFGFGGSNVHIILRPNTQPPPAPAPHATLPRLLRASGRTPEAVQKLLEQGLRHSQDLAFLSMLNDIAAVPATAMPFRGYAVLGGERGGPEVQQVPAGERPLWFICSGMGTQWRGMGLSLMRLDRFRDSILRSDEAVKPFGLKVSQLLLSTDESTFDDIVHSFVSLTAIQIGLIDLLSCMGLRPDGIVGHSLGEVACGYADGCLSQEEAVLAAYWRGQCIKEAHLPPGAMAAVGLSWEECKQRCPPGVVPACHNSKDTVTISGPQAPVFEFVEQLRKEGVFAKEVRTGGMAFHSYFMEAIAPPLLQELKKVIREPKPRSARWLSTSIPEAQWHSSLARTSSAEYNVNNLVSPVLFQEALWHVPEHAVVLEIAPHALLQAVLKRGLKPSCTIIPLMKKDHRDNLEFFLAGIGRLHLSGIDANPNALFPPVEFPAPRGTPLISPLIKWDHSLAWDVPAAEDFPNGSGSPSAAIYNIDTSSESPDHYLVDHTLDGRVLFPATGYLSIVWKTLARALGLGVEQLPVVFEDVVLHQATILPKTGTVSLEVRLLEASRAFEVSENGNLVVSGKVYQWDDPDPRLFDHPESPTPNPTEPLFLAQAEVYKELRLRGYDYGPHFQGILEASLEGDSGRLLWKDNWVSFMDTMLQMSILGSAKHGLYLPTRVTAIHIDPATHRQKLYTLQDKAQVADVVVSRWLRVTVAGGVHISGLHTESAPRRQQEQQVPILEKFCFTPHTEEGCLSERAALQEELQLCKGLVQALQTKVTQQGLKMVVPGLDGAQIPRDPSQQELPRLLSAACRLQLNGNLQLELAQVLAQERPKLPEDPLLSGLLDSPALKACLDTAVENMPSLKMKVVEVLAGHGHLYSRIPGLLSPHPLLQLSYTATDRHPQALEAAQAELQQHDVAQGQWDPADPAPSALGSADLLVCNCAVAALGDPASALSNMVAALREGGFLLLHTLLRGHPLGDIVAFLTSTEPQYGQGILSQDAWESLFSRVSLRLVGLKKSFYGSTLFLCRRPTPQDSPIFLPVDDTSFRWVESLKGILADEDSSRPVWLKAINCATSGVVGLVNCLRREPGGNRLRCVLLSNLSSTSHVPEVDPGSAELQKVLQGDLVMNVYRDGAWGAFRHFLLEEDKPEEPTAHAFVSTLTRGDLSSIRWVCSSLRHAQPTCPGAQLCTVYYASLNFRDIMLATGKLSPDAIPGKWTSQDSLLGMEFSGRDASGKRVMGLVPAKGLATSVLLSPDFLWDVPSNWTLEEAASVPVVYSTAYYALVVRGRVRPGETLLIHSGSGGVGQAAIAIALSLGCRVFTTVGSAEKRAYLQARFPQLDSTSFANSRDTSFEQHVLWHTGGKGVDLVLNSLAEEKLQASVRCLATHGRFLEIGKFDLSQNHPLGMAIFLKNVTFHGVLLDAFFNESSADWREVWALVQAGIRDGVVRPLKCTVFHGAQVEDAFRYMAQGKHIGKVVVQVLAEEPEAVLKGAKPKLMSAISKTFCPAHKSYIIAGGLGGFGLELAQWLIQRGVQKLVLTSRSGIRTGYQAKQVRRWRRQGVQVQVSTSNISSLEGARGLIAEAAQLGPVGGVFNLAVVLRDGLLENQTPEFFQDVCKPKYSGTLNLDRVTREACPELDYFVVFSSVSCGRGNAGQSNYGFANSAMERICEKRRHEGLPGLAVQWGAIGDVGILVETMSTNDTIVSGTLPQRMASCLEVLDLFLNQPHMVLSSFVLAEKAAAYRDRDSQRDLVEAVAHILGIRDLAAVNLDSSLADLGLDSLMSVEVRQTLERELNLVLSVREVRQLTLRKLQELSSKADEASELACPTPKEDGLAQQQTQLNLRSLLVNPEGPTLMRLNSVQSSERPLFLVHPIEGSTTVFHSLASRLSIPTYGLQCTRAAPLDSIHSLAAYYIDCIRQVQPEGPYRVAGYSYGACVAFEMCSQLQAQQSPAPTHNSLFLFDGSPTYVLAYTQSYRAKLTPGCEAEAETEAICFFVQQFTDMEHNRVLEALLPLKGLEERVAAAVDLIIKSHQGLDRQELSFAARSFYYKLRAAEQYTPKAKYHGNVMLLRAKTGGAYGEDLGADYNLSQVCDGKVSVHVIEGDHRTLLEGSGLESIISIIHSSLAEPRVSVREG
Sequence of Nucleotide-binding oligomerization domain-containing protein 2 (Q9HC29 whole entry, the tested form may be a part): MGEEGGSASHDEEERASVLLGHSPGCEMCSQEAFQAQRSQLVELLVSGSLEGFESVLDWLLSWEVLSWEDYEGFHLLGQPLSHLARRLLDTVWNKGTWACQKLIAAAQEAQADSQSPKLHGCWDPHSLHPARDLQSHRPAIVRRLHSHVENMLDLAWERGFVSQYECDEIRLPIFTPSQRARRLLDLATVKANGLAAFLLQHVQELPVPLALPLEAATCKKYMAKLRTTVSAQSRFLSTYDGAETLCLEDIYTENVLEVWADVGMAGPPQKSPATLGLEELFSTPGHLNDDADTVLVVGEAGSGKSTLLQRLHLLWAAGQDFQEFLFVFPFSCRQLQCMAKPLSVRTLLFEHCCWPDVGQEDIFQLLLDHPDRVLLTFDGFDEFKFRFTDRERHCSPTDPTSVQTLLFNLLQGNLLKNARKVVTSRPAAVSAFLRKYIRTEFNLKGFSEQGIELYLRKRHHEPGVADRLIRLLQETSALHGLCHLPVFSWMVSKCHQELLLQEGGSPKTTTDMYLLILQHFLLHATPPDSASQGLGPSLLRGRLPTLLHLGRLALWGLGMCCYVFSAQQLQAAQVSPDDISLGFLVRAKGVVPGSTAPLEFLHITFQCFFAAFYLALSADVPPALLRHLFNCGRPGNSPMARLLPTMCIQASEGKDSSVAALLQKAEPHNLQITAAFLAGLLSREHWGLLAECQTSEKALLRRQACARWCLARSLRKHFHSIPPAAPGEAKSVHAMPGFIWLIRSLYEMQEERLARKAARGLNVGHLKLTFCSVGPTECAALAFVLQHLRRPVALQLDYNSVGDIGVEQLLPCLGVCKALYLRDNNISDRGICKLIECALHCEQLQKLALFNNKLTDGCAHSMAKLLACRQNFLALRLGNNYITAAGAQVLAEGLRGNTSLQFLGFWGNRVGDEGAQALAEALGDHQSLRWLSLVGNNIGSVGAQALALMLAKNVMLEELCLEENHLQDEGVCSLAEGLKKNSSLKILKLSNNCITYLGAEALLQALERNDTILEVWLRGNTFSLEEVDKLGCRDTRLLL

## O=C(O)c1nn(CCOc2c(Cl)cccc2Cl)c(=O)c2ccccc12
[1]
  CC50: > 25 µM (active)

## COc1ccccc1CC(Cc1nc2ccccc2[nH]1)c1nc2ccccc2[nH]1 (stereo not given)
[2]
  EC50: 3.35 µM (active)
[3]
  IC50: 13.8 µM (active)

## O=C(Nc1cccc2ccccc12)N1CC=C(c2ccccc2)CC1
[4]
  EC50: 53.7 µM (inactive)
[5]
  EC50: > 99 µM (inactive)

## Cc1cccc(NC(S)=NNC(=O)c2csc(C)c2)c1
[6]
  IC50: > 122 µM (inactive)

## Cc1cccc(NS(=O)(=O)c2ccc3[nH]c(=O)cc(C(=O)OC(C)C(=O)Nc4ccc([N+](=O)[O-])cc4)c3c2)c1 (stereo not given)
[7]
  IC50: 1.51 µM (active)
[8]
  IC50: 3.66 µM (active)
[9]
  IC50: > 69.5 µM (inactive)

## Cc1cccc(NS(=O)(=O)c2ccc3nc(O)cc(C(=O)OC(C)C(=O)Nc4ccc([N+](=O)[O-])cc4)c3c2)c1 (stereo not given)
[10]
  IC50: > 69.5 µM (inactive)

## Cc1cc(C)cc(-n2c(SC(C)C(=O)NCc3ccc4c(c3)OCO4)nc3ccccc3c2=O)c1 (stereo not given)
[9]
  IC50: > 69.5 µM (inactive)
[10]
  IC50: 18.3 µM (inactive)

## CC1CN(C2=CC(=[N+]3CCOCC3)CC(C)(C)C2)CC(C)O1 (stereo not given)
[11]
  IC50: 1.83 µM (active)

## COc1cc(/C=C/c2ccc3cccc(O)c3n2)cc(Cl)c1OC
[12]
  EC50: 3.66 µM (active)
[13]
  EC50: 23.4 µM (active)
[14]
  IC50: 9.42 µM (active)
[15]
  EC50: 44.9 µM (active)
[16]
  IC50: > 20 µM (inactive)
[17]
  EC50: > 20 µM (inactive)
[18]
  IC50: 4.22 µM (inactive)
[19]
  IC50: > 20 µM (inactive)
[20]
  EC50: > 150 µM (not active)
[21]
  EC50: 19.1 µM (active)
[1]
  CC50: 11.6 µM (active)

## O=C(Nc1ccc(S(=O)(=O)Nc2nccs2)cc1)c1nn(-c2ccccc2)ccc1=O
[11]
  IC50: 3.52 µM (active)
